Results published in PMC5007854, “β-Nitrostyrenes as Potential Anti-leishmanial Agents” (Frontiers in Microbiology, 2016).
In brackets after ≈: the same amount, converted by molar mass. Like-named read-outs stand apart in the source and are kept apart here.

Assays:
[1] = tested on: Escherichia coli ATCC 25922; assay: Broth microdilution antibacterial susceptibility (MIC/MBC); assay type: cell-based; conditions: Escherichia coli; for MIC: ATCC25922, 24 h
From the text: (§1) One reference each of the following species was used for their in vitro susceptibility to β-nitrostyrene in this study: Staphylococcus aureus ATCC 29213, Staphylococcus epidermidis ATCC 14990, Escherichia coli ATCC 25922, Pseudomonas aeruginosa ATCC 27853, Candida albicans ATCC 90028, Candida glabrata ATCC 90030, Aspergillus fumigatus ATCC 16424 and Aspergillus niger ATCC 16404. These strains were procured from the American Type Culture Collection (ATCC, Manassas, VA, USA).
(§2) The antibacterial and antifungal activities of the β-nitrostyrenes were performed by broth microdilution methods as per the guidelines of Clinical and Laboratory Standard Institute (Wayne, [1998], [2008a],[b],[c]) by using Mueller-Hinton broth (MHB; Becton-Dickinson, Cockeysville, MD, USA) supplemented with calcium (25 mg/L) and magnesium (12.5 mg/L) for bacterial strains while as RPMI 1640 medium with L-glutamine and without sodium bicarbonate, buffered to pH 7.0 with 0.165 M 3-(N-morpholino) propanesulfonic acid (MOPS; both from Sigma) was used for fungal strains. Stock solutions were prepared in 100% dimethyl sulfoxide (DMSO; Sigma; distilled water was used for ciprofloxacin), with a final DMSO concentration of 1% (vol. per vol.) and two-fold serial dilutions were prepared in media in amounts of 100 μL per well in 96-well U-bottom microtiter plates (Tarsons, Kolkata, India) to yield twice the final concentration required for testing, which ranged from 64 to 0.12 μg/mL for β-nitrostyrenes and 16 to 0.03 μg/mL for ciprofloxacin as well as amphotericin B. Stock inoculum suspensions of the bacteria, Candida species and Aspergillus species were prepared in sterile normal saline (0.85%) containing 0.05% polysorbate 20 (NST) from overnight (3 to 5-day old for Aspergillus species) strains grown on Trypticase soy agar (TSA; Becton-Dickinson) and potato dextrose agar (Difco Laboratories, Detroit, MI, USA) respectively at 35°C. Inocula were verified for each assay by plating onto agar plates for colony enumeration. These suspensions were further diluted in the respective test medium and a 100 μl volume of this diluted inoculum was added to each well of the plate, resulting in a final inoculum concentration of approximately 5 × 10^5 CFU/mL for bacter1ia, (Wayne, [2008a]) approximately 2.5 × 10^4 CFU/ml for Candida species (Pfaller et al., [2004]) while as 0.4 × 10^4 to 5 × 10^4 CFU/mL for Aspergillus species (Wayne, [2008c]). Untreated growth control, vehicle control (DMSO) and sterility control wells were included for each isolate tested. Ciprofloxacin and amphotericin B served as the standard drug controls for bacterial and fungal strains, respectively. The microtiter plates were incubated at 35°C for 24 h for bacterial strains and 48 h for fungal strains. The plates were read visually and the minimum inhibitory concentration (MIC) was defined as the lowest concentration of test sample that prevented visible growth with respect to the growth control.
(§3) The minimum bactericidal concentration (MBC) and minimum fungicidal concentration (MFC) were determined by plating 100 μl volumes on agar plates from the wells showing no visible growth (clear MIC well). The plates were incubated as described above in MIC measurements. […] All experiments were conducted twice in duplicates on separate occasions with freshly prepared inoculums and stock solutions.

[2] = tested on: Staphylococcus epidermidis ATCC 14990; assay: as above; assay type: cell-based; conditions: Staphylococcus epidermidis; for MIC: ATCC14990, 24 h
From the text: as §1, §2, §3

[3] = tested on: Staphylococcus aureus ATCC 29213; assay: as above; assay type: cell-based; conditions: Staphylococcus aureus; for MIC: ATCC29213, 24 h
From the text: as §1, §2, §3

[4] = tested on: Pseudomonas aeruginosa ATCC 27853; assay: as above; assay type: cell-based; conditions: Pseudomonas aeruginosa; for MIC: ATCC27853, 24 h
From the text: as §1, §2, §3

[5] = tested on: Aspergillus niger ATCC 16404; assay: Broth microdilution antifungal susceptibility (MIC/MFC); assay type: cell-based; conditions: Aspergillus niger; for MIC: ATCC16404, 48 h
From the text: as §1, §2, §3

[6] = tested on: Aspergillus fumigatus ATCC 16424; assay: as above; assay type: cell-based; conditions: Aspergillus fumigatus; for MIC: ATCC16424, 48 h
From the text: as §1, §2, §3

[7] = tested on: Candida albicans ATCC 90028; assay: as above; assay type: cell-based; conditions: Candida albicans; for MIC: ATCC90028, 48 h
From the text: as §1, §2, §3

[8] = tested on: Candida glabrata ATCC 90030; assay: as above; assay type: cell-based; conditions: Nakaseomyces glabratus; for MIC: ATCC90030, 48 h
From the text: as §1, §2, §3

[9] = tested on: L. donovani promastigotes; assay: Anti-leishmanial screening at 100 μM, parasite viability by microscopy; assay type: cell-based, Leishmania donovani
Experimental: L. donovani parasites (MHOM/IN/83/AG83) were maintained in vivo in BALB/c mice. Promastigotes were routinely cultured at 22°C in medium M199 supplemented with 10% heat inactivated fetal bovine serum (FBS, HiMedia Laboratories, Mumbai, India), penicillin 100 (IU/ml), streptomycin (100 μg/ml). Log phase promastigotes were sub-cultured every 72–96 h, the inoculum being 2 × 10^6 cells/ml (Afrin et al., [2002]).
Nitrostyrine series were screened for their antileishmanial activity against L. donovani promastigotes in vitro. Promastigotes of L. donovani (2 × 10^6 cells/mL) in M199 medium were incubated at 22°C for 72 h with each compound at a concentration of 100 μM. Amphotericin B (AmB) served as reference drug, 0.2% DMSO was used as solvent control. Parasites with media alone were taken as control. Parasite viability was determined microscopically after 72 h (Islamuddin et al., [2014b]).

For `C/C(=C\c1ccc([N+](=O)[O-])cc1)[N+](=O)[O-]` [Compound 8, 1-nitro-4-((E)-2-nitroprop-1-enyl) benzene], the melting point was 114 to 116 °C, the MIC ([1]; read-out: MIC, Ec ATCC 25922, broth microdilution, 35°C, 24 h) was 64 mg/L (≈ 307 µM) and the MBC ([1]; ATCC25922, read-out: MBC, Ec ATCC 25922) was over 64 mg/L. For the same compound, the MIC ([2]; read-out: MIC, Se ATCC 14990, broth microdilution, 35°C, 24 h) was 16 mg/L (≈ 76.9 µM), the MBC ([2]; ATCC14990, read-out: MBC, Se ATCC 14990) was 16 mg/L (≈ 76.9 µM) and the MIC ([3]; read-out: MIC, Sa ATCC 29213, broth microdilution, 35°C, 24 h) was 16 mg/L (≈ 76.9 µM). For the same compound, the MBC ([3]; ATCC29213, read-out: MBC, Sa ATCC 29213) was 32 mg/L (≈ 154 µM), the MIC ([4]; read-out: MIC, Pa ATCC 27853, broth microdilution, 35°C, 24 h) was 64 mg/L (≈ 307 µM) and the MBC ([4]; ATCC27853, read-out: MBC, Pa ATCC 27853) was over 64 mg/L. The MIC ([5]; read-out: MIC, An ATCC 16404, broth microdilution, 35°C, 48 h) was 2 mg/L (≈ 9.61 µM), the MFC ([5]; ATCC16404, read-out: MFC, An ATCC 16404) was 2 mg/L (≈ 9.61 µM) and the MIC ([6]; read-out: MIC, Af ATCC 16424, broth microdilution, 35°C, 48 h) was 4 mg/L (≈ 19.2 µM). The MFC ([6]; ATCC16424, read-out: MFC, Af ATCC 16424) was 4 mg/L (≈ 19.2 µM), the MIC ([7]; read-out: MIC, Ca ATCC 90028, broth microdilution, 35°C, 48 h) was 4 mg/L (≈ 19.2 µM) and the MFC ([7]; ATCC90028, read-out: MFC, Ca ATCC 90028) was 4 mg/L (≈ 19.2 µM). The MIC ([8]; read-out: MIC, Cg ATCC 90030, broth microdilution, 35°C, 48 h) was 1 mg/L (≈ 4.8 µM), the MFC ([8]; ATCC90030, read-out: MFC, Cg ATCC 90030) was 1 mg/L (≈ 4.8 µM) and the “Parasite viability after treatment” value ([9]; 100 μM, 72 h, phase contrast microscope) was “All the parasites were found to be dead”.

Work on `CCOc1cccc(/C=C/[N+](=O)[O-])c1O` [Compound 27, 2-ethoxy-6-((E)-2-nitrovinyl) phenol] yielded a melting point of 128 to 130 °C, an MIC ([1]; broth microdilution, 35°C, 24 h, read-out: MIC, Ec ATCC 25922) of over 64 mg/L and an MBC ([1]; ATCC25922, ≥99.9% reduction of original inoculum, read-out: MBC, Ec ATCC 25922) of over 64 mg/L. The MIC ([2]; broth microdilution, 35°C, 24 h, read-out: MIC, Se ATCC 14990) was 16 mg/L (≈ 76.5 µM), the MBC ([2]; ATCC14990, ≥99.9% reduction of original inoculum, read-out: MBC, Se ATCC 14990) was 16 mg/L (≈ 76.5 µM) and the MIC ([3]; broth microdilution, 35°C, 24 h, read-out: MIC, Sa ATCC 29213) was 32 mg/L (≈ 153 µM). The MBC ([3]; ATCC29213, ≥99.9% reduction of original inoculum, read-out: MBC, Sa ATCC 29213) was 32 mg/L (≈ 153 µM), the MIC ([4]; broth microdilution, 35°C, 24 h, read-out: MIC, Pa ATCC 27853) was over 64 mg/L and the MBC ([4]; ATCC27853, ≥99.9% reduction of original inoculum, read-out: MBC, Pa ATCC 27853) was over 64 mg/L. It also gave an MIC ([5]; broth microdilution, 35°C, 48 h, read-out: MIC, An ATCC 16404) of 8 mg/L (≈ 38.2 µM), an MFC ([5]; ATCC16404, ≥99.9% reduction of original inoculum, read-out: MFC, An ATCC 16404) of 8 mg/L (≈ 38.2 µM) and an MIC ([6]; broth microdilution, 35°C, 48 h, read-out: MIC, Af ATCC 16424) of 16 mg/L (≈ 76.5 µM). For the same compound, the MFC ([6]; ATCC16424, ≥99.9% reduction of original inoculum, read-out: MFC, Af ATCC 16424) was 16 mg/L (≈ 76.5 µM), the MIC ([7]; broth microdilution, 35°C, 48 h, read-out: MIC, Ca ATCC 90028) was 32 mg/L (≈ 153 µM) and the MFC ([7]; ATCC90028, ≥99.9% reduction of original inoculum, read-out: MFC, Ca ATCC 90028) was 32 mg/L (≈ 153 µM). The MIC ([8]; broth microdilution, 35°C, 48 h, read-out: MIC, Cg ATCC 90030) was 16 mg/L (≈ 76.5 µM), the MFC ([8]; ATCC90030, ≥99.9% reduction of original inoculum, read-out: MFC, Cg ATCC 90030) was 16 mg/L (≈ 76.5 µM) and the “Anti-leishmanial activity, in words (SAR discussion)” value ([9]; L. donovani promastigotes) was “inactive”.
